Measurements published in US7659283B2, “Pyrrolo [3,2-C] pyridines useful as inhibitors of protein kinases” (Vertex Pharmaceuticals Incorporated, priority 2006, dated 2010).

Columns and labels:
human Lck kinase = human Lck kinase (Homo sapiens, UniProt P06239); experiment: Lck Inhibition Assay: Spectrophotometric Assay; format: biochemical; details: 60 nM Lck, 500 μM ATP, 30° C., coupled NADH spectrophotometric assay; read-out: Ki (inhibit Lck)
Protocol: The compounds are evaluated as inhibitors of human Lck kinase using a spectrophotometric assay.
Lck Inhibition Assay: Spectrophotometric Assay
An assay buffer solution was prepared which consisted of 25 mM HEPES (pH 7.5), 10 mM MgCl2, 250 μM NADH, 3 mM phosphoenolpyruvate, 43 μg/mL pyruvate kinase, 14 μg/mL lactate dehydrogenase, 560 μM ATP and 67 nM Lck. To 60 μL of this solution, in a 96 well plate, was added 2 μL of test compound stock solution in DMSO and the mixture allowed to equilibrate for 10 minutes at 30° C. The enzyme reaction was initiated by the addition of 5 μL 15 mg/mL poly Glu, Tyr (4:1) prepared in 25 mM HEPES (pH 7.5). Final assay concentrations of Lck and ATP are 60 nM and 500 μM respectively. Initial rate data was determined from the rate of change of absorbance at 340 nm (corresponding to stoichiometric consumption of NADH) using a Molecular Devices Spectramax plate reader (Sunnyvale, Calif.) over 10 min at 30° C. For each Ki determination 8 data points covering the test compound compound concentration range of 0-7.5 μM are obtained in duplicate. Ki values are calculated from initial rate data by non-linear regression using the Prism software package (Prism 4.0a, Graphpad Software, San Diego, Calif.).

human Src kinase = human Src kinase (Homo sapiens, UniProt P12931); experiment: Src Inhibition Assay: Spectrophotometric Assay; format: biochemical; details: 25 nM Src, 100 μM ATP, 30° C., coupled NADH spectrophotometric assay; read-out: Ki (inhibit Src)
human Src kinase, sequence (P12931 whole entry): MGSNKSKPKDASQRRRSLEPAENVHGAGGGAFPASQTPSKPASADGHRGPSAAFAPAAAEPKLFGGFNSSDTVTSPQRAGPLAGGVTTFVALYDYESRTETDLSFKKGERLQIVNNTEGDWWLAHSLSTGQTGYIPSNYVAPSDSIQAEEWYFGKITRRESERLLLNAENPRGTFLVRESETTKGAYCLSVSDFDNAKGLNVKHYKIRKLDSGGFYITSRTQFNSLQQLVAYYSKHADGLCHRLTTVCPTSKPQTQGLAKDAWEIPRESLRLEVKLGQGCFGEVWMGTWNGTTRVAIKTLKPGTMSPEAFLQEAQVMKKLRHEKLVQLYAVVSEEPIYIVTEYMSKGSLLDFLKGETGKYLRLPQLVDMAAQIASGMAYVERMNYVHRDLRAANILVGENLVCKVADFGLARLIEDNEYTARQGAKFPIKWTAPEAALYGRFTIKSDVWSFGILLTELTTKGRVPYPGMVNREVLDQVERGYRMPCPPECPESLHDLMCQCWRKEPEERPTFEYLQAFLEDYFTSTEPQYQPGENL
Protocol: The compounds are evaluated as inhibitors of human Src kinase using a spectrophotometric assay.
Src Inhibition Assay: Spectrophotometric Assay
An assay buffer solution was prepared which consisted of 25 mM HEPES (pH 7.5), 10 mM MgCl2, 250 μM NADH, 3 mM phosphoenolpyruvate, 60 μg/mL pyruvate kinase, 21 μg/mL lactate dehydrogenase, 113 μM ATP and 28 nM Src. To 60 μL of this solution, in a 96 well plate, was added 2 μL of test compound stock solution in DMSO and the mixture allowed to equilibrate for 10 mins at 30° C. The enzyme reaction was initiated by the addition of 5 μL 10 mg/mL poly Glu, Tyr (4:1) prepared in 25 mM HEPES (pH 7.5). Final assay concentrations of Src and ATP were 25 nM and 100 μM respectively. Initial rate data was determined from the rate of change of absorbance at 340 nm (corresponding to stoichiometric consumption of NADH) using a Molecular Devices Spectramax plate reader (Sunnyvale, Calif.) over 10 mins at 30° C. For each Ki determination 8 data points covering the test compound concentration range of 0-7.5 μM were obtained in duplicate. Ki values were calculated from initial rate data by non-linear regression using the Prism software package (Prism 4.0a, Graphpad Software, San Diego, Calif.).

human Lck kinase, sequence (P06239 whole entry): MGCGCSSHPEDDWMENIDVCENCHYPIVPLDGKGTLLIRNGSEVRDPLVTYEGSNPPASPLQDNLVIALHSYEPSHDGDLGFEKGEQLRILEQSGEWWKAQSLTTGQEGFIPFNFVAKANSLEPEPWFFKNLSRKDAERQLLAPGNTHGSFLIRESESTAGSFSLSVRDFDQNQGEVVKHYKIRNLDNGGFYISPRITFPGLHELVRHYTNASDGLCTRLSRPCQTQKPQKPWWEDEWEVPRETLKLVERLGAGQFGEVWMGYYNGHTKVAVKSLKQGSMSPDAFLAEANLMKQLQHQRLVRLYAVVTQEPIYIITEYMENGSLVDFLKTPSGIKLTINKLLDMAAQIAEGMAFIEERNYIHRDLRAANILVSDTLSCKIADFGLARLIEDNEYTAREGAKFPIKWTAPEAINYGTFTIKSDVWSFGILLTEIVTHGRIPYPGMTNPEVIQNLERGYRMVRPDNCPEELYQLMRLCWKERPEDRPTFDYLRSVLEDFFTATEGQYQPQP

Work on `Nc1nccc2c1c(-c1ccc(Oc3ccccc3)cc1)cn2C1CCCC1` [Compound I-1, 1-Cyclopentyl-3-(4-phenoxyphenyl)-1H-pyrrolo[3,2-c]pyridin-4-amine] yielded a Ki (human Lck kinase) of under 1000 nM and a Ki (human Src kinase) of under 1000 nM.
